The target of one assay is T1, SMYD3 (Homo sapiens, UniProt Q9H7B4).
T1 construct: Full length recombinant SMYD3 was produced as previously reported; made in house; host or cells: E. coli BL21(DE3), in some cases Rosetta 2
T1 sequence (Q9H7B4 1-428): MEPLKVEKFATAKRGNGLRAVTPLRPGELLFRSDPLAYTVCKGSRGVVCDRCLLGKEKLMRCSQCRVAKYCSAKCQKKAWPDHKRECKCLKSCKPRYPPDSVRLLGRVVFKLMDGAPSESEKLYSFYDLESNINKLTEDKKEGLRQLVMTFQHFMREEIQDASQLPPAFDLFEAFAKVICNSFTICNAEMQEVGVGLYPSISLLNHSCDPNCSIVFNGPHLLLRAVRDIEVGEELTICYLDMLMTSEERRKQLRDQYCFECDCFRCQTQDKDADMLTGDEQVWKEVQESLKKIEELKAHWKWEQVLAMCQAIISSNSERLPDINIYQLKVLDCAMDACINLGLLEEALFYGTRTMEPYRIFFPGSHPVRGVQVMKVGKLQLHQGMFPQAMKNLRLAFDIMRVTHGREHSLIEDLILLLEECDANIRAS
The experiment in a line: GCI biosensor multi cycle kinetic confirmation of hits. Type of assay: binding. The following applies: two-fold serial dilution starting at 250 μM, 15 °C, global fit 1:1 model. Here is the method:
Selected screening hits were also re-tested by conventional multi cycle kinetic analysis in order to confirm the interactions (some compounds were no longer available). Two variants of the GCI biosensor assay were set up, using different immobilisation levels, to allow the confirmation of hits over a broad range of affinities. […] The kinetics varied for the selected hits (ESI, ^† Fig. S2). All hits were not confirmed (ESI, ^† Fig. S1b).
(§1) All interaction kinetic experiments were conducted with a GCI–flow-based biosensor (WAVEdelta, Creoptix AG/Malvern Panalytical) and PCH WAVEchip (Creoptix AG/Malvern Panalytical) sensor chips. The sensor chips were conditioned using injections of borate buffer (10 mM sodium tetraborate pH 8.5, 1 M NaCl). The running buffer composition, if not otherwise stated, was TBS buffer (50 mM Tris, 150 mM NaCl, 0.5 mM TCEP, 0.05% Tween 20, 1% DMSO, pH 8). SMYD3 was diluted to the desired concentration in 10 mM bis-Tris (pH 7.0) and amine coupled to the sensor surface of the PCH sensor chip. The sensor chip was functionalized at 25 °C by immobilising SMYD3 with EDC and NHS (Xantec) using an injection time of 420 s and a flow rate of 10 μL min^−1. The immobilisation levels ranged from 5000 pg mm^−2 to 18 500 pg mm^−2 surface mass to enable analysis of fragments spanning a broad range of affinities. After immobilization, the surface was deactivated with a running buffer containing 50 mM Tris for 420 s. The GCI data referencing and analysis were performed using WAVEcontrol V4.5 (Creoptix AG).
(§2) Kinetic measurements with controls and fragments were performed at 15 °C. Analysis of controls and follow up of hits was done using the multi cycle kinetic (MCK) injection of a concentration series for the same time, with a two-fold serial dilution starting at 250 μM for each compound. Solvent correction was performed ranging from 0.5–1.8% DMSO. Blank samples of the running buffer, 1× TBS (50 mM Tris, 150 mM NaCl, 0.5 mM TCEP, 0.05% Tween 20, 1% DMSO, pH 8), were injected during the measurements every fifth cycle. The experimental design illustrated in Fig. 1 was used for the screening against all four surfaces. The sensorgrams were adjusted to account for solvent correction and blank subtraction. Kinetic fitting was performed with the Direct Kinetics engine of WAVEcontrol software V4.5 (Creoptix AG) with a suitable fitting model.
FL06268 Superstoichiometric and
Figure 1. Examples of sensorgrams from multicycle kinetic experiments with initial fragment hits and SMYD3. A)
Fragments for which crystal structures of the complex with SMYD3 were obtained. A global fit of the sensorgrams
crystal structures were not obtained. […]

For a further assay, the target named is T2, SMYD3 (apo, native) (Homo sapiens, UniProt Q9H7B4).
T2 construct: Full length recombinant SMYD3 was produced as previously reported; made in house; host or cells: E. coli BL21(DE3), in some cases Rosetta 2
T2 sequence (Q9H7B4 1-428): T1 sequence (Q9H7B4 1-428)
The experiment in a line: GCI biosensor kinetic screening, apo SMYD3 surface. In kind it is binding.
Text: A multiplexed screening assay was set up with three different SMYD3 surfaces and a blank reference surface in flow channels 1–4 (FC1–FC4) (Fig. 2a), as described previously.[5] The apo SMYD3 surface detected fragments interacting anywhere on SMYD3, while a SMYD3 surface blocked by active site-specific tight-binding inhibitor EPZ031686 detected compounds binding elsewhere. The denatured surface served as a reference, detecting fragments binding to unfolded proteins, also potentially present to a significant degree in the other two surfaces.
After preparing the sensor surface and immobilising SMYD3, the functionality of the surface was assessed via analysis of interactions with the co-factor product S-adenosyl-homocysteine (SAH). It was used as a control in all experiments, confirming that sensor surfaces were intact. This was done using the novel multiple injection-based experimental design (Fig. 1) at 25 μM, i.e. in a weak binder mode (Fig. 2b).
The library was screened using the approach described in Fig. 1, i.e. injection of fragments at 250 μM for increasing durations of time in a single cycle, using a flow rate of 100 μL min^−1, data acquisition set to 40 Hz and with an association time of 5 s and dissociation of 20 s. Each fragment was addressed to all four channels and interactions with the native and blocked surfaces compared. The experimental conditions were chosen to ensure that the assay could reliably characterize the fast and transient interactions expected from typical fragments.
The kinetic screening of 1056 compounds was successfully completed in 72 hours. […] Hits were identified with full kinetic information using dissociation phases.
as §1, §2

The Kd is the free concentration of one partner at which half of the binding sites on the other are occupied at equilibrium, for simple one-to-one binding. High values mean a looser complex, low ones a tighter complex. In the case of `Cn1cnc(S(N)(=O)=O)c1` [FL06268], the “Outcome of multicycle kinetic experiment (sensorgram assessment)” value on SMYD3 is listed as “Superstoichiometric”. For the same compound, the “LE (ligand efficiency)” value at SMYD3 (apo, native) (LE = −RT ln(KD)/n) is on record as 0.63 (kcal^-1 mol^-1)/HA. Besides, binding at SMYD3 (apo, native) (initial kinetic screening, fragment 250 μM, 15 °C) was put at a Kd of 24.5 µM. Moreover, the kd at SMYD3 (apo, native) (initial kinetic screening, fragment 250 μM, 15 °C, 1:1 model) was 0.52 s⁻¹. The kon at 250 µM on SMYD3 (apo, native) (initial kinetic screening, fragment 250 μM, 15 °C, 1:1 model, read-out: ka) is 21400 M⁻¹ s⁻¹.
